Measurements: patent publication US10058525B2, “Application of chlorogenic acid in preparing medicines for treating lupus erythematosus” (SICHUAN JIUZHANG BIOLOGICAL SCIENCE AND TECHNOLOGY CO., LTD., priority 2015, dated 2018)
“Also recorded” adds a separate entry of the source.

What was measured:
lupus erythematosus = test: Screening medicines for treatment of lupus erythematosus; conditions: screening of extracts and potency constituents; no method given
ANA [1] = test: Serologic detection of ANA by immunofluorescence on HEp-2 cell sheets, serum of UV + LPS lupus model mice; type: in vivo, BALB/c mice; design: key: (+): positive; (−): negative; (++++): intense fluorescence; (+++): stronger fluorescence; (++): weeker fluorescence; conditions: intragastric
Protocol: The back of mice was shaved and acutely exposed to Ultraviolet of 2 h/d*3 d, with a distance of 30 cm. After exposure to UV, 2.5 mg/kg of LPS was administrated once by ip, and after 24 h, the model was successfully established; the mice in the normal control group received normal saline via ip. 24 h after injection of LPS (ip), medicines were given to the model mice by intragastric administration. Chlorogenic acid test groups received high, middle, and low doses of medicines, by intragastric administration at a respective dosage of 10 mg/kg*d, 20 mg/kg*d, and 40 mg/kg*d. The positive control group A received 2 mg/kg*d of artesunate by stomach perfusion, while the positive control group B received 1 mg/kg*d of prednisone by stomach perfusion. Mice in the model and normal control group all received 0.4 ml/mouse normal saline by gavage. After 15 days of administration, animals in each group were taken blood by separating eyeballs on days 14, 21, 28, and after cultured in water bath at 37° C. for 1 h, the blood sample was centrifugated at 2000 r/min for 5 min, to draw serum for use. On day 21, after blood collection, animals were sacrificed by dislocation, followed by collection of liver and kidney, and they were placed in fixative solutions of electron microscope and light microscrope, respectively. Serum of mice was diluted at 1:100 with special buffer solution of Shenzhen Hengjia, and then 200 μL of diluted serum was respectively added to the reactive tank with corresponding number, cultured in the incubator at 37° C. for 30 min, and washed with the buffer solution four times, 2 min for each time; 200 μL of diluted biotin goat anti-mouse IgG (1:100) was added, cultured in the incubator at 37° C. for 30 min, and then washed with the buffer solution four times, 2 min for each time; 100 μL of diluted HRP-avidin (1:100) was added, cultured in the incubator at 37° C. for 30 min, and then washed as mentioned-above; reactive solutions A and B were added till appearance of positive bands, then washed with the buffer solution. Compared with the standard bands of ENA polypeptide antibody spectrum in the same kit, if the positive bands appeared at 28/29,13.5 ku polypeptide; 15,16.5,38 kupolypeptide; 52 kupolypeptide and 47/48,45 kupolypeptide, that can be determined as anti-Sm, anti-Rib, anti-ssA, and anti-ssB positive antibody. Serum was diluted with PBS at 1:40, then 20-30 μL of diluted serum was dropped into the scrobiculus of HEp-2 cell sheets, each cell sheet for each group. In the process of dropping serum, it should be noted that the surface of cell sheet can not be touched. After addition of serum, cell sheet was placed in wet box and kept for 30 min at room temperature (25° C.). After 30 min, the cell sheet was taken out, and serum was carefully washed out with PBS, then carefully washed twice with PBS, 5 min for each time; after washing, the remained PBS was removed by special absorbent paper of […] company (In this process, it should be noted that becoming dry of cell substrates will affect the results). 20-30 μL of diluted (PBS, 1:100) FITC goat anti-mouse IgG was added by dropping, and then incubated in wet box at room temperature for 30 min. After washing with PBS, steps were same to above. The remained PBS was removed by absorbent paper, and 1-2 drops of fluorescent mounting media were added to the cell sheet. The cover glass was mounted, observed under Olympus BH-2 universal microscope, and then photographed.

[2] = system: lupus erythematosus model mice (renal glomerular capsule wall epithelial cells); test: Electron microscope observation of kidney samples, lupus model mice; type: in vivo, BALB/c mice; conditions: 21 days
Protocol: The back of mice was shaved and acutely exposed to Ultraviolet of 2 h/d*3 d, with a distance of 30 cm. After exposure to UV, 2.5 mg/kg of LPS was administrated once by ip, and after 24 h, the model was successfully established; the mice in the normal control group received normal saline via ip. 24 h after injection of LPS (ip), medicines were given to the model mice by intragastric administration. Chlorogenic acid test groups received high, middle, and low doses of medicines, by intragastric administration at a respective dosage of 10 mg/kg*d, 20 mg/kg*d, and 40 mg/kg*d. The positive control group A received 2 mg/kg*d of artesunate by stomach perfusion, while the positive control group B received 1 mg/kg*d of prednisone by stomach perfusion. Mice in the model and normal control group all received 0.4 ml/mouse normal saline by gavage. After 15 days of administration, animals in each group were taken blood by separating eyeballs on days 14, 21, 28, and after cultured in water bath at 37° C. for 1 h, the blood sample was centrifugated at 2000 r/min for 5 min, to draw serum for use. On day 21, after blood collection, animals were sacrificed by dislocation, followed by collection of liver and kidney, and they were placed in fixative solutions of electron microscope and light microscrope, respectively. On day 21, the sample used for observation under electron microscope was fixed in mixed stationary solution of 2% paraformaldehyde+0.25% glutaral for 4 h, rinsed with TBS, treated with 1% osmic acid, followed by fixation for 1 h, rinsed with buffer solution, dehydrated with acetone, dyed with uranyl acetate for 2 h, macerated in Epon812 and embedded, and cut into slices with LEICA ultramicrotome. The slices were stained with lead solution, and the sample was observed under transmission electron microscope when it was dry.

ANA [3] = test: Serologic detection of ANA by immunofluorescence on HEp-2 cell sheets, serum of UV + LPS lupus model mice; type: in vivo, BALB/c mice; conditions: chlorogenic acid high dose, ×200
Protocol: The back of mice was shaved and acutely exposed to Ultraviolet of 2 h/d*3 d, with a distance of 30 cm. After exposure to UV, 2.5 mg/kg of LPS was administrated once by ip, and after 24 h, the model was successfully established; the mice in the normal control group received normal saline via ip. 24 h after injection of LPS (ip), medicines were given to the model mice by intragastric administration. Chlorogenic acid test groups received high, middle, and low doses of medicines, by intragastric administration at a respective dosage of 10 mg/kg*d, 20 mg/kg*d, and 40 mg/kg*d. The positive control group A received 2 mg/kg*d of artesunate by stomach perfusion, while the positive control group B received 1 mg/kg*d of prednisone by stomach perfusion. Mice in the model and normal control group all received 0.4 ml/mouse normal saline by gavage. After 15 days of administration, animals in each group were taken blood by separating eyeballs on days 14, 21, 28, and after cultured in water bath at 37° C. for 1 h, the blood sample was centrifugated at 2000 r/min for 5 min, to draw serum for use. On day 21, after blood collection, animals were sacrificed by dislocation, followed by collection of liver and kidney, and they were placed in fixative solutions of electron microscope and light microscrope, respectively. Serum of mice was diluted at 1:100 with special buffer solution of Shenzhen Hengjia, and then 200 μL of diluted serum was respectively added to the reactive tank with corresponding number, cultured in the incubator at 37° C. for 30 min, and washed with the buffer solution four times, 2 min for each time; 200 μL of diluted biotin goat anti-mouse IgG (1:100) was added, cultured in the incubator at 37° C. for 30 min, and then washed with the buffer solution four times, 2 min for each time; 100 μL of diluted HRP-avidin (1:100) was added, cultured in the incubator at 37° C. for 30 min, and then washed as mentioned-above; reactive solutions A and B were added till appearance of positive bands, then washed with the buffer solution. Compared with the standard bands of ENA polypeptide antibody spectrum in the same kit, if the positive bands appeared at 28/29,13.5 ku polypeptide; 15,16.5,38 kupolypeptide; 52 kupolypeptide and 47/48,45 kupolypeptide, that can be determined as anti-Sm, anti-Rib, anti-ssA, and anti-ssB positive antibody. Serum was diluted with PBS at 1:40, then 20-30 μL of diluted serum was dropped into the scrobiculus of HEp-2 cell sheets, each cell sheet for each group. In the process of dropping serum, it should be noted that the surface of cell sheet can not be touched. After addition of serum, cell sheet was placed in wet box and kept for 30 min at room temperature (25° C.). […]

**Q.** What does the source list for `O=C(/C=C/c1ccc(O)c(O)c1)O[C@@H]1C[C@](O)(C(=O)O)C[C@@H](O)[C@H]1O` [Chlorogenic acid, 3-O-caffeoylquinic acid]?
**A.** inhibition on lupus erythematosus (lupus erythematosus): more obvious inhibition; ANA (ANA [1]; day 21, chlorogenic acid high dose): (++); ANA (ANA [1]; day 21, chlorogenic acid low dose): (+++); ANA (ANA [1]; day 21, chlorogenic acid middle dose): (++); ANA (ANA [1]; day 28, chlorogenic acid high dose): (++); ANA (ANA [1]; day 28, chlorogenic acid low dose): (+++); ANA (ANA [1]; day 28, chlorogenic acid middle dose): (++); proliferative degree of renal glomerular capsule wall epithelial cells ([2]; chlorogenic acid (all dose groups)): somewhat relieved; proliferative degree of glomerular capsule wall epithelial cells ([2]; high-dose group of chlorogenic acid): somewhat relieves; also recorded: the release degree in high dose group was the most obvious; fluorescence intensity of ANA (FIG. 2) (ANA [3]; 14 days): decreases; fluorescence intensity of ANA (FIG. 3) (ANA [3]; 21 days): decreases; fluorescence intensity of ANA (FIG. 4) (ANA [3]; 28 days): decreases
